target: T1, human kinase Mps-1 (Homo sapiens, UniProt P33981); assay: Mps-1 kinase assay (HTRF); format: biochemical
T1 construct: N-terminally GST-tagged human full length recombinant Mps-1 kinase; GST (N); purchased Invitrogen, Karslruhe, Germany PV4071
T1 sequence (P33981 1-857): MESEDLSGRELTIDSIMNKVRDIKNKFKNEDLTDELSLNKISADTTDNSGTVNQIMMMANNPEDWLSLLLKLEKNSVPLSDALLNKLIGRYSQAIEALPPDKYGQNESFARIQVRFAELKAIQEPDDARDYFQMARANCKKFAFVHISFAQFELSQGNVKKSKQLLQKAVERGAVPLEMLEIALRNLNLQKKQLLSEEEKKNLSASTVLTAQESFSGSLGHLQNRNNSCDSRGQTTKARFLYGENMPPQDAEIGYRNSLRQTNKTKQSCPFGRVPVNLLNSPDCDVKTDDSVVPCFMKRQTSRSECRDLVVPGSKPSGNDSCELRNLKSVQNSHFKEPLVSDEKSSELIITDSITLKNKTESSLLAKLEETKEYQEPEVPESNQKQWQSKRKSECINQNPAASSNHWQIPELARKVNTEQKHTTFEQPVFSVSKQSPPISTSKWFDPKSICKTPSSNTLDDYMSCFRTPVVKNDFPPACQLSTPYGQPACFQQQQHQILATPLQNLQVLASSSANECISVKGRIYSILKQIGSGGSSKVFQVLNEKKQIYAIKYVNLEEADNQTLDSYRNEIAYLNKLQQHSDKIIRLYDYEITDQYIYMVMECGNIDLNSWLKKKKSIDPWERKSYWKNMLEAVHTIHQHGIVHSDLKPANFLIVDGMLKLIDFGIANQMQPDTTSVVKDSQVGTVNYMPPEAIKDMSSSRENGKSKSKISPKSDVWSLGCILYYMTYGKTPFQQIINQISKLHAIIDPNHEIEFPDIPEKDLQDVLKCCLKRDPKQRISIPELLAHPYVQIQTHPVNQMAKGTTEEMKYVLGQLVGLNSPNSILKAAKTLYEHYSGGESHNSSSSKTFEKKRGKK
Description: The human kinase Mps-1 phosphorylates a biotinylated substrate peptide. Detection of the phosphorylated product is achieved by homogenous time-resolved fluorescence resonance energy transfer (HTRF) from Europium-labelled anti-phospho-Serine/Threonine antibody as donor to streptavidin labelled with cross-linked allophycocyanin (SA-XLent) as acceptor. Compounds are tested for their inhibition of the kinase activity.
N-terminally GST-tagged human full length recombinant Mps-1 kinase (purchased from Invitrogen, Karslruhe, Germany, cat. no PV4071) was used. As substrate for the kinase reaction a biotinylated peptide of the amino-acid sequence […] (C-terminus in amide form, purchased from Biosynthan GmbH, Berlin) was used.
The concentration of Mps-1 in the assay was adjusted to the activity of the enzyme lot and was chosen appropriate to have the assay in the linear range, typical enzyme concentrations were in the range of about 1 nM (final conc. in the 5 μl assay volume).
The resulting mixture was incubated 1 h at 22° C. to allow the binding of the phosphorylated peptide to the anti-phospho(Ser/Thr)-Europium-antibody. Subsequently the amount of phosphorylated substrate was evaluated by measurement of the resonance energy transfer from the Europium-labelled anti-phospho(Ser/Thr) antibody to the Streptavidin-XLent.

| IC50 [µM] | SMILES |
| --- | --- |
| 0.11 | N#Cc1ccccc1Nc1nc2ccc(-c3cccc(C(N)=O)c3)cn2n1 [Example 3.8, 3-{2-[(2-cyanophenyl)amino] [1,2,4]triazolo[1,5-a]pyridin-6-yl}benzamide] |
| 0.74 | Cc1cc(O)ccc1-c1ccc2nc(Nc3ccccc3C#N)nn2c1 [Example 3.9, 2-{[6-(4-hydroxy-2-methylphenyl)[1,2,4]triazolo[1,5-a]pyridin-2-yl]amino}benzonitrile] |
| 0.024 | CNC(=O)c1ccc(-c2ccc3nc(Nc4ccccc4C#N)nn3c2)cc1 [Example 3.10, 4-{2-[(2-cyanophenyl)amino] [1,2,4]triazolo[1,5-a]pyridin-6-yl}-N-methylbenzamide] |
| 0.89 | N#Cc1ccccc1Nc1nc2ccc(-c3cccc(F)c3)cn2n1 [Example 3.12, 2-{[6-(3-fluorophenyl)[1,2,4]triazolo[1,5-a]pyridin-2-yl]amino}benzonitrile] |
| 1.2 | COc1ccccc1-c1ccc2nc(Nc3ccccc3C#N)nn2c1 [Example 3.13, 2-{[6-(2 methoxyphenyl)[1,2,4]triazolo[1,5-a]pyridin-2-yl]amino}benzonitrile] |
| 0.77 | N#Cc1ccccc1Nc1nc2ccc(-c3ccc(CO)cc3)cn2n1 [Example 3.14, 2-({6-[4-(hydroxymethyl)phen-yl][1,2,4]triazolo[1,5-a]pyridin-2-yl}amino)benzonitrile] |
| 0.028 | N#Cc1ccccc1Nc1nc2ccc(-c3cccc(O)c3)cn2n1 [Example 3.17, 2-{[6-(3-hydroxyphenyl)[1,2,4]triazolo[1,5-a]pyridin-2-yl]amino}benzonitrile] |
| 0.096 | COc1c(C)cc(-c2ccc3nc(Nc4ccccc4C#N)nn3c2)cc1C [Example 3.19, 2-{[6-(4-methoxy-3,5-dimethylphenyl)[1,2,4]triazolo[1,5-a]pyridin-2-yl]amino}benzonitrile] |
| 1.5 | N#Cc1ccc(-c2ccc3nc(Nc4ccccc4C#N)nn3c2)cc1 [Example 3.20, 2-{[6-(4-cyanophenyl)[1,2,4]triazolo[1,5-a]pyridin-2-yl]amino}benzonitrile] |
| 0.21 | N#Cc1ccccc1Nc1nc2ccc(-c3ccc4[nH]ccc4c3)cn2n1 [Example 3.21, 2-{[6-(1H-indol-5-yl)[1,2,4]triazolo[1,5-a]pyridin-2-yl]amino}benzonitrile] |
| 0.046 | N#Cc1ccccc1Nc1nc2ccc(-c3ccc(N)cc3)cn2n1 [Example 4.2, 2-{[6-(4-aminophenyl)[1,2,4]triazolo[1,5-a]pyridin-2-yl]amino}benzonitrile] |
| 0.028 | CC(=O)Nc1ccc(-c2ccc3nc(Nc4ccccc4C#N)nn3c2)cc1 [Example 4.3, N-(4-{2-[(2-cyanophenyl)amino][1,2,4]triazolo[1,5-a]pyridin-6-yl}phenyl)acetamide] |
| 0.072 | COc1ccccc1Nc1nc2ccc(-c3ccc(N)cc3)cn2n1 [Example 5.2, 6-(4-aminophenyl)-N-(2-methoxyphenyl)[1,2,4]triazolo[1,5-a]pyridin-2-amine] |
| 0.076 | COc1ccccc1Nc1nc2ccc(-c3ccc(NC(C)=O)cc3)cn2n1 [Example 5.3, N-(4-{2-[(2-methoxyphenyl)amino][1,2,4]triazolo[1,5-a]pyridin-6-yl}phenyl)acetamide] |
| 0.22 | O=C(CCl)Nc1ccc(-c2ccc3nc(Nc4ccccc4C(F)(F)F)nn3c2)cc1 [Example 6.3, 2-chloro-N-[4-(2-{[2-(trifluoromethyl)phenyl]amino}[1,2,4]triazolo[1,5-a]pyridin-6-yl)phenyl]acetamide] |
| 0.19 | COc1ccccc1Nc1nc2ccc(-c3cccc(NS(C)(=O)=O)c3)cn2n1 [Example 8.3, N-(3-{2-[(2-methoxyphenyl)amino][1,2,4]triazolo[1,5-a]pyridin-6-yl}phenyl)methanesulfonamide] |
| 0.092 | COc1ccccc1Nc1nc2ccc(-c3cccc(NC(=O)NC(C)C)c3)cn2n1 [Example 8.4, 1-(3-{2-[(2-methoxyphenyl)amino][1,2,4]triazolo[1,5-a]pyridin-6-yl}phenyl)-3-propan-2-ylurea] |
| 0.5 | CCOC(=O)c1cccc(-c2ccc3nc(Nc4ccccc4C#N)nn3c2)c1 [Example 9.1, ethyl 3-{2-[(2-cyanophenyl)amino][1,2,4]triazolo[1,5-a]pyridin-6-yl}benzoate] |
| 0.072 | N#Cc1ccccc1Nc1nc2ccc(-c3cccc(C(=O)O)c3)cn2n1 [Example 9.2, 3-{2-[(2-cyanophenyl)amino][1,2,4]triazolo[1,5-a]pyridin-6-yl}benzoic acid] |
| 0.0088 | CC(C)NC(=O)c1cccc(-c2ccc3nc(Nc4ccccc4C#N)nn3c2)c1 [Example 9.4, 3-{2-[(2-cyanophenyl)amino][1,2,4]triazolo[1,5-a]pyridin-6-yl}-N-(propan-2-yl)benzamide] |
| ≤ 0.001 | O=C(NCC(F)(F)F)c1ccc(-c2ccc3nc(Nc4cccnc4OCC(F)(F)F)nn3c2)cc1 [Example 11.001, 4-(2-{[2-(2,2,2-trifluoroethoxy)pyridin-3-yl]amino}[1,2,4]triazolo[1,5-a]-pyridin-6-yl)-N-(2,2,2-trifluoroethyl)benzamide] |
| ≤ 0.001 | CC(C)(C)NC(=O)c1ccc(Nc2nc3ccc(-c4ccc(C(=O)NCC(F)(F)F)cc4)cn3n2)c(OCC(F)(F)F)c1 [Example 11.002, N-tert-butyl-3-(2,2,2-trifluoroethoxy)-4-[(6-{4-[(2,2,2-trifluoroethyl)-carbamoyl]phenyl}[1,2,4]triazolo[1,5-a]pyridin-2-yl)amino]benzamide] |
| 0.00374 | CCOc1ncccc1Nc1nc2ccc(-c3ccc(C(=O)NCC(F)(F)F)cc3)cn2n1 [Example 11.003, 4-{2-[(2-ethoxypyridin-3-yl)amino][1,2,4]triazolo[1,5-a]pyridin-6-yl}-N-(2,2,2-trifluoroethyl)benzamide] |
| 0.00101 | COc1cc(C(=O)NC(C)(C)C)ccc1Nc1nc2ccc(-c3ccc(C(=O)NCC(F)(F)F)cc3)cn2n1 [Example 11.005, N-tert-butyl-3-methoxy-4-[(6-{4-[(2,2,2-trifluoroethyl)carbamoyl]phenyl}[1,2,4]triazolo[1,5-a]pyridin-2-yl)amino]benzamide] |
| ≤ 0.001 | CCNC(=O)c1ccc(Nc2nc3ccc(-c4ccc(C(=O)NCC(F)(F)F)cc4)cn3n2)c(OC)c1 [Example 11.006, N-ethyl-3-methoxy-4-[(6-{4-[(2,2,2-trifluoroethyl)carbamoyl]phenyl}[1,2,4]triazolo[1,5-a]pyridin-2-yl)amino]benzamide] |
| ≤ 0.001 | CNCCN(C)C(=O)c1ccc(Nc2nc3ccc(-c4ccc(C(=O)NCC(F)(F)F)cc4)cn3n2)c(OC)c1 [Example 11.007, 3-methoxy-N-methyl-N-[2-(methylamino)ethyl]-4-[(6-{4-[(2,2,2-trifluoroethyl)carbamoyl]phenyl}[1,2,4]triazolo[1,5-a]pyridin-2-yl)amino]benzamide] |
| 1.55 | N#Cc1ccccc1Nc1nc2ccc(-c3ccc(C(=O)O)cc3)cn2n1 [Example 11.009, 4-{2-[(2-cyanophenyl)amino][1,2,4]triazolo[1,5-a]pyridin-6-yl}benzoic acid] |
| 0.00161 | N#Cc1ccccc1Nc1nc2ccc(-c3ccc(C(=O)NCC(F)(F)F)cc3)cn2n1 [Example 11.010, 4-{2-[(2-cyanophenyl)amino][1,2,4]triazolo[1,5-a]pyridin-6-yl}-N-(2,2,2-trifluoroethyl)benzamide] |

Reference: patent US20130121994A1, “TRIAZOLOPYRIDINE DERIVATIVES” (BAYER INTELLECTUAL PROPERTY GMBH, priority 2009, published 2013)
